Values after ≈ are worked out from the molar mass of the structure shown. Active and inactive are the calls of the source. The rule behind the calls is not given here.
Key:
[1] = target: Bifunctional dihydrofolate reductase-thymidylate synthase (Plasmodium falciparum K1) (UniProt P13922); test: Inhibition of wild type Plasmodium falciparum DHFR using DHF as substrate at 500 uM in presence of NADPH by UV-Vis spectrometry analysis relative to control
[2] = target: Bifunctional dihydrofolate reductase-thymidylate synthase (Plasmodium falciparum K1) (UniProt P13922); test: Binding affinity to Plasmodium falciparum DHFR assessed as faster binding and release kinetics by surface plasmon resonance analysis
[3] = tested on: Plasmodium falciparum; test: Inhibition of Plasmodium falciparum DHFR N51I/C59R/S108N/I164L quadruple mutant assessed as fold change in inhibition in presence of 2,4-diamino-6-ethylpyrimidin-5-ol
[4] = tested on: Plasmodium falciparum; test: Inhibition of Plasmodium falciparum DHFR N51I/C59R/S108N/I164L quadruple mutant using DHF as substrate at 500 uM in presence of NADPH by UV-Vis spectrometry analysis relative to control
[5] = target: T1, Dihydrofolate reductase (Homo sapiens) (UniProt P00374); test: Inhibition of human DHFR at 500 uM by UV-Vis spectrometry analysis
T1 sequence (whole entry): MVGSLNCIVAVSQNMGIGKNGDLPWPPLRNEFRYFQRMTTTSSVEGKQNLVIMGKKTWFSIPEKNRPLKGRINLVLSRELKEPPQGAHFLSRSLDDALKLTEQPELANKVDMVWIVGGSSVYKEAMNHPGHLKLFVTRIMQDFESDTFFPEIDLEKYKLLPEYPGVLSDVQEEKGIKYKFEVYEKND

[6] = tested on: Plasmodium falciparum; test: Binding affinity to Plasmodium falciparum DHFR N51I/C59R/S108N/I164L quadruple mutant assessed as change in melting temperature in presence of NADPH by […] analysis
[7] = target: Bifunctional dihydrofolate reductase-thymidylate synthase (Plasmodium falciparum K1) (UniProt P13922); test: Inhibition of wild type Plasmodium falciparum DHFR using DHF as substrate at 500 uM in presence of NADPH by UV-Vis spectrometry analysis
[8] = target: Bifunctional dihydrofolate reductase-thymidylate synthase (Plasmodium falciparum K1) (UniProt P13922); test: Binding affinity to Plasmodium falciparum DHFR assessed as binding constant (kon) by surface plasmon resonance analysis
[9] = Metabolic stability in human liver microsomes assessed as intrinsic clearance measured upto 60 mins in presence of NADPH by LC-MS/MS analysis; type: ADME, Microsome; conditions: read-out: CLH
[10] = target: T2, Dihydrofolate reductase (Homo sapiens, UniProt P00374); test: Inhibition of human DHFR using DHF as substrate assessed as inhibition constant in presence of NADPH by UV-Vis spectrometry analysis
T2 sequence (P00374 whole entry): T1 sequence (whole entry)

[11] = target: Bifunctional dihydrofolate reductase-thymidylate synthase (Plasmodium falciparum K1, UniProt P13922); test: Inhibition of wild type Plasmodium falciparum DHFR using DHF as substrate assessed as inhibition constant in presence of NADPH by UV-Vis spectrometry analysis
Sequence of Bifunctional dihydrofolate reductase-thymidylate synthase (P13922 whole entry): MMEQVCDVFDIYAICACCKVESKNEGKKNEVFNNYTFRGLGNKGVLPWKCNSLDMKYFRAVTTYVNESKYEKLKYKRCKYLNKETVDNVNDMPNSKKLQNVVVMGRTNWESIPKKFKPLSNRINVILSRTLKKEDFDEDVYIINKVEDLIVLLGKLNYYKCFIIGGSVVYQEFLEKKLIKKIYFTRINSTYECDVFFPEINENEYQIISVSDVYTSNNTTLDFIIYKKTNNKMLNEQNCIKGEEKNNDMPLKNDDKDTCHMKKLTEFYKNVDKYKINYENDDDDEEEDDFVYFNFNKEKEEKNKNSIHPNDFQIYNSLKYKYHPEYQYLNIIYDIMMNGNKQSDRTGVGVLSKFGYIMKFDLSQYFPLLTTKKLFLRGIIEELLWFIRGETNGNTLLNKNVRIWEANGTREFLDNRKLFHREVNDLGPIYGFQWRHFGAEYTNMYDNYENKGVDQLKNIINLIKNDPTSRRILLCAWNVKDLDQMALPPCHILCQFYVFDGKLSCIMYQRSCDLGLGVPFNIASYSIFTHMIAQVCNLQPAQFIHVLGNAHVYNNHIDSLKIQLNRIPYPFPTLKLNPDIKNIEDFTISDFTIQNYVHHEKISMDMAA

[12] = Kinetic solubility of the compound at pH 4.5 at 200 uM incubated for 2 hrs under shaking condition by HPLC analysis; type: physicochemical; conditions: buffer, read-out: Kinetic_solubility
[13] = tested on: Plasmodium falciparum; test: Antiplasmodial activity against PYR-resistant Plasmodium falciparum V1/S encoding QM DHFR infected in human erythrocytes assessed as inhibition of parasite growth by [3H]-hypoxanthine incorporation assay; type: functional, organism-based; conditions: Erythrocyte
[14] = Kinetic solubility of the compound at pH 2.0 at 200 uM incubated for 2 hrs under shaking condition by HPLC analysis; type: physicochemical; conditions: buffer, read-out: Kinetic_solubility
[15] = Kinetic solubility of the compound at pH 7.4 at 200 uM incubated for 2 hrs under shaking condition by HPLC analysis; type: physicochemical; conditions: buffer, read-out: Kinetic_solubility
[16] = Kinetic solubility of the compound at pH 6.5 at 200 uM incubated for 2 hrs under shaking condition by HPLC analysis; type: physicochemical; conditions: buffer, read-out: Kinetic_solubility
[17] = tested on: Plasmodium falciparum; test: Antiplasmodial activity against PYR-sensitive Plasmodium falciparum TM4/8.2 encoding WT DHFR infected in human erythrocytes assessed as inhibition of parasite growth by [3H]-hypoxanthine incorporation assay; type: functional, organism-based; conditions: TM4/8.2, Erythrocyte
[18] = Cytotoxicity against African green monkey Vero cells assessed as cell growth inhibition incubated for 72 hrs by sulforhodamine B assay; type: toxicity, cell-based, Chlorocebus sabaeus
[19] = Metabolic stability in rat liver microsomes assessed as intrinsic clearance measured upto 60 mins in presence of NADPH by LC-MS/MS analysis; type: ADME, Microsome; conditions: read-out: CLH
[20] = Inhibition of Plasmodium falciparum DHFR N51I/C59R/S108N/I164L quadruple mutant using DHF as substrate assessed as inhibition constant in presence of NADPH by UV-Vis spectrometry analysis
[21] = target: Bifunctional dihydrofolate reductase-thymidylate synthase (Plasmodium falciparum K1) (UniProt P13922); test: Binding affinity to Plasmodium falciparum DHFR assessed as binding constant (koff) by surface plasmon resonance analysis
[22] = tested on: Plasmodium falciparum; test: Inhibition of Plasmodium falciparum DHFR N51I/C59R/S108N/I164L quadruple mutant using DHF as substrate at 500 uM in presence of NADPH by UV-Vis spectrometry analysis
[23] = Distribution coefficient, log D of compound in n-octanol and saturated PBS at pH 7.4 at 100 uM incubated for 2 hrs under shaking condition by HPLC analysis; type: physicochemical
[24] = Half life in human; type: ADME

Sequence of Bifunctional dihydrofolate reductase-thymidylate synthase (Plasmodium falciparum K1) (P13922 whole entry, looked up): as the sequence (P13922 whole entry) above

Structure (SMILES) | inhibition [1] | inhibition [4] | inhibition [5] | inhibition [7] | K [8] | K [21] | inhibition [22] | further results
COc1ccccc1-c1ccc(C(=O)O)cc1 | 14.6% | 24% | inactive | – | – | – | – | Activity [2]: Active; fold change (FC) [3]: 2.7
O=C(O)c1cccc(-c2ccncc2)c1 | – | 19.5% | inactive | inactive | 6.41 M⁻¹ s⁻¹ | – | – | ΔTm [6]: 0.8 °C
CCc1nc(N)nc(N)c1Cc1ccc(-c2cccc(C(=O)O)c2)cc1.Cl | – | – | – | – | – | – | – | microsomal CLint [9]: 4.92 µL/min/mg; Ki [10]: 147 nM; Ki [11]: 0.29 nM; solubility kinetic at 2 h, 200 µM [12]: 11.4 µM; IC50 [13]: 29700 nM; solubility kinetic at 2 h, 200 µM [14]: 192 µM; solubility kinetic at 2 h, 200 µM [15]: 29.9 µM; solubility kinetic at 2 h, 200 µM [16]: 15.7 µM; IC50 [17]: 770 nM; IC50 at 72 h [18]: > 50000 nM; microsomal CLint [19]: < 3 µL/min/mg; Ki [20]: 1.96 nM
O=C(O)c1ccc(-c2ccc(O)cc2)cc1 | 21.1% | 24.9% | inactive | – | 14.8 M⁻¹ s⁻¹ | 0.011 s⁻¹ | – | –
O=C(O)c1ccc(-c2cccnc2)cc1 | 8.5% | 2.4% | inactive | – | 4.18 M⁻¹ s⁻¹ | 0.001 s⁻¹ | – | –
O=C(O)c1ccc(-c2ccncc2)cc1 | 2.93% | 10.1% | inactive | – | 16.4 M⁻¹ s⁻¹ | 0.001 s⁻¹ | – | –
O=C(O)c1ccnc(-c2ccccc2)c1 | – | – | inactive | inactive | 3.55 M⁻¹ s⁻¹ | 0.01 s⁻¹ | inactive | –
Cc1oc(-c2ccccc2)cc1C(=O)O | – | – | inactive | inactive | 6.06 M⁻¹ s⁻¹ | 0.014 s⁻¹ | inactive | –
CCc1nc(N)nc(N)c1Cc1ccc(-c2ccc(C(=O)OC)cc2)cc1.Cl | – | – | – | – | – | – | – | microsomal CLint [9]: 459 µL/min/mg; Ki [10]: 423 nM; Ki [11]: 1.06 nM; solubility kinetic at 2 h, 200 µM [12]: 132 µM; IC50 [13]: > 25000 nM; solubility kinetic at 2 h, 200 µM [14]: 154 µM; solubility kinetic at 2 h, 200 µM [15]: < 4 µM; solubility kinetic at 2 h, 200 µM [16]: < 4 µM; IC50 [17]: 8150 nM; logD at 2 h, 100 µM [23]: 3.49; IC50 at 72 h [18]: > 25000 nM; microsomal CLint [19]: 764 µL/min/mg; Ki [20]: 41.7 nM
CCc1nc(N)nc(N)c1OCCCOc1ccccc1CCC(=O)O | – | – | – | – | – | – | – | microsomal CLint [9]: < 3 µL/min/mg; Ki [10]: 17.4 nM; solubility kinetic at 2 h, 200 µM [12]: 200 µM (≈ 72 µg/mL); IC50 [13]: 56 nM; solubility kinetic at 2 h, 200 µM [14]: 207 µM (≈ 74.6 µg/mL); solubility kinetic at 2 h, 200 µM [15]: 201 µM (≈ 72.5 µg/mL); solubility kinetic at 2 h, 200 µM [16]: 204 µM (≈ 73.5 µg/mL); IC50 [17]: 5 nM; logD at 2 h, 100 µM [23]: -0.095; half-life [24]: < 20 h; IC50 at 72 h [18]: > 100000 nM; microsomal CLint [19]: < 3 µL/min/mg; Ki [20]: 0.54 nM
O=C(O)c1cccc(-c2ccccc2)n1 | – | – | inactive | inactive | 9.99 M⁻¹ s⁻¹ | 0.013 s⁻¹ | inactive | –
Cc1ccc(-c2ccc(C(=O)O)cc2)o1 | 27.4% | 23.1% | inactive | – | 25.4 M⁻¹ s⁻¹ | 0.019 s⁻¹ | – | ΔTm [6]: -2.3 °C
O=C(O)c1cccnc1-c1ccccc1 | – | – | inactive | inactive | – | – | inactive | Activity [2]: Active
O=C(O)c1ccc(-n2cccc2)cc1 | 8% | 19.4% | inactive | – | 14.6 M⁻¹ s⁻¹ | 0.008 s⁻¹ | – | –
COc1cccc(-c2ccc(C(=O)O)o2)c1 | 12.7% | – | inactive | – | 9.51 M⁻¹ s⁻¹ | 0.014 s⁻¹ | inactive | –

From ChEMBL document CHEMBL5356935, “Discovery of rigid biphenyl Plasmodium falciparum DHFR inhibitors using a fragment linking strategy” (RSC Med Chem, 2023)
